Measured values: patent US20180214400A1, “THE USE OF KAURANES COMPOUNDS IN THE MANUFACTURE OF MEDICAMENT FOR TREATMENT OF CADIAC HYPERTROPY AND PULMONARY HYPERTENSION” (KEY-PHARMA BIOMEDICAL INC., priority 2015, published 2018)

Legend:
[1] = tested on: pulmonary hypertension rats; assay: Pressure overload (TAC)-induced pulmonary hypertension, lung histology; type: in vivo, wistar rats; design: Mean vascular wall thickness: unit not given here; conditions: for Mean vascular wall thickness: 9 weeks TAC
Protocol: Pressure overloaded-induced pulmonary hypertension was induced by transverse aortic constriction in male wistar rats (200±20 g body weight). Sham operated rats served as controls. […] After 9 weeks, animals were sacrificed and lungs were fixed, paraffin-embedded, sectioned, and stained with hematoxylin and eosin. Blinded stereological Analysis of mean wall thickness and vascular muscularization of lung arterial vessels was performed. Collagen I was verified by immune-fluorescent staining and visualized in confocal.

TAC rats [2] = assay: Heart rate variability spectral analysis in TAC rats; type: in vivo; conditions: TAC for 9 weeks
Protocol: Three or nine weeks after TAC operation, rats were anesthetized with pentobarbital sodium (i.p. 40 mg/kg). The electrocardiogram (ECG) was measured using the II Einthoven lead. Three stainless steel 22G needle electrodes were localized in the insertion of the right (G1) and left (GND) front legs, and in the left (G2) rear leg. Accordingly, 10 min of ECG recordings were digitally acquired at 2 kHz prior to any maneuver. Heart rate variability-Spectral Analysis was performed using fast Fourier transformation. Oscillatory components were separated into very low frequency (VLF; <0.04 Hz), low frequency (LF; 0.04-0.6 Hz), or high frequency (HF; 0.6-2.5 Hz) bands. HRV components were expressed in normalized units (n.u.) as a percentage of total power minus the VLF component. Efferent vagal parasympathetic activity is a major contributor to the HF component and both sympathetic and vagal influences contribute to the LF component; thus the ratio of LF to HF is commonly utilized as a measure of sympathovagal balance. Parameters of the heart rate variability (HRV) are indicators for cardiac autonomic balance. […] This invention disclosed a novel used of compound A for restore cardiac autonomic balance by suppress elevated sympathetic activity, which sildenafil had no such effect.

TAC-exposed rats = assay: ECG alterations induced by TAC; type: in vivo; conditions: for QT dispersion and QTc dispersion increase induced by TAC: TAC after 9 weeks; for QRS duration and R amplitude: TAC at 9 weeks
TAC rats [3] = assay: TAC-induced cardiac hypertrophy and cardiomyocyte dilation in rats; type: in vivo, Wistar rats; conditions: for cardiac and myocyte hypertrophy: 3-week TAC groups; for increment of cardiomyocyte cross-sectional area: 3-week TAC; for HW / HW/BW: 3 wk TAC
Protocol: TAC between the innominate artery and the left carotid artery was conducted to induce pressure overload for 3 weeks (3-week TAC) or 9 weeks (9-week TAC). Sham control animals underwent the same operation, but without aortic constriction. All surgical procedures were performed with animals anesthetized with 3% pentobarbital sodium injected intraperitoneally (i.p. 40 mg/kg). During the surgery period, rats were intubated and ventilated with a rodent ventilator (Harvard Apparatus, Holliston, Mass., USA).
Both 3-week and 9-week TAC-exposed rats were randomly divided into five groups (n=8-10 rats) including a TAC vehicle control, COMPOUND A, low (TAC+COMPOUND A (L), 1 mg/kg/d), middle (TAC+COMPOUND A (M), 2 mg/kg/d), high (TAC+COMPOUND A (H), 8 mg/kg/d) dose group respectively, and sildenafil (TAC+Sil, 70 mg/kg/d) as a positive control group. Sham controls were all treated with vehicle. Acute and chronic mortality from the TAC procedure was <5%. The treat group was intra-gastric administrated with sodium salt of compound A which was solved in a mixture of saline and organic solvent of the same volume (1:1, 0.5 ml) and sildenafil which was solved in distilled water. All drugs and vehicle treatment were given twice a day after surgery for three days as designed. The animals were examined at 3 weeks and 9 weeks after surgery accordingly. At the end of the observation periods and after hemodynamic measurement in vivo, all animals were sacrificed and hearts were explanted for further Analyses.
Tissue sections of rat hearts were fixed in 10% neutral-buffered formalin, embedded in paraffin, cut into […] serial sections, and then stained with haematoxylin and eosin (H&E), picrosirius red or phalloidin. Nikon system and Zeiss confocal microscope were used to capture digital images. Stained with H&E was to evaluate cell size, stained with picrosirius red (sigma CA) was to test fibrosis using standard procedure and the amount of F-actin was stained with phalloidin. We determined cross sectional cell area and interstitial collagen fraction using computer-assisted image analysis (Image-Pro Plus software), with the observer blinded as to tissue source. At least four or five different hearts were quantified for analysis.
Adult Wistar rats were subjected to TAC for 3 weeks and treated with vehicle, COMPOUND A or sildenafil, respectively. […] The cardiac and myocyte hypertrophy were ameliorated by compound A or sildenafil in the 3-week TAC groups (Table 1).

[4] = comp. A (L) 1 mg/kg/d intra-gastric

Structure (SMILES): CCCc1nn(C)c2c(=O)[nH]c(-c3cc(S(=O)(=O)N4CCN(C)CC4)ccc3OCC)nc12 [sildenafil, reference compound]
- Fully muscularization ([1]; 70 mg/kg + TAC): 23.80 ± 8.247 %
- Non-muscularization ([1]; 70 mg/kg + TAC): 57.57 ± 7.182 %
- Partially muscularization ([1]; 70 mg/kg + TAC): 18.61 ± 15.09%
- fluorescent intensity of collagen I ([1]; lung, 70 mg/kg + TAC): 7.591
- Mean vascular wall thickness ([1]; pulmonary arterioles inner diameter <100 um, sildenafil): 24.10 ± 7.48
- Mean vascular wall thickness ([1]; pulmonary arterioles inner diameter >100 um, sildenafil): 14.88 ± 6.83
- LF/HF ratio (TAC rats [2]): did not reduce
- QT dispersion and QTc dispersion increase induced by TAC (TAC-exposed rats): did not show similar protective effect
- QRS duration and R amplitude (TAC-exposed rats): trended normal
- cardiac and myocyte hypertrophy (TAC rats [3]): ameliorated
- increment of cardiomyocyte cross-sectional area (TAC rats [3]; 70 mg/kg): 16.3%
- HW (TAC rats [3]; sildenafil 70 mg/kg/d): 0.76 ± 0.04 g
- HW/BW (TAC rats [3]; sildenafil 70 mg/kg/d): 2.86 ± 0.117 mg/g

Structure (SMILES): C[C@@]12CC[C@@H]3[C@@](CC[C@H]4[C@@]3(C)CCC[C@@]4(C)C(=O)O)(CC1=O)C2 [Compound A, (4α,8β,13β)-13-methyl-16-oxo-17-norkauran-18-oic acid]
- Fully muscularization ([1]; 1 mg/kg + TAC): 10.20 ± 9.787 %
- Non-muscularization ([1]; 1 mg/kg + TAC): 66.78 ± 5.876 %
- Partially muscularization ([1]; 1 mg/kg + TAC): 23.00 ± 3.938%
- Fully muscularization ([1]; 4 mg/kg + TAC): 1.851 ± 3.207^#& %
- Non-muscularization ([1]; 4 mg/kg + TAC): 81.10 ± 16.60 %
- Partially muscularization ([1]; 4 mg/kg + TAC): 17.04 ± 18.98%
- number of non-muscularization vessels ([1]; lung, TAC rats): increased
- production of collagen I ([1]; lung, TAC rats): reduced
- vascular remodeling in small and medium arteries ([1]; lung, TAC rats): prevented
- fluorescent intensity of collagen I ([1]; lung, 1 mg/kg + TAC): 10.75
- Mean vascular wall thickness ([1]; pulmonary arterioles inner diameter <100 um, 1 mg/kg): 22.96 ± 7.83
- Mean vascular wall thickness ([1]; pulmonary arterioles inner diameter <100 um, 4 mg/kg): 17.60 ± 6.28^##&&
- Mean vascular wall thickness ([1]; pulmonary arterioles inner diameter >100 um, 1 mg/kg): 16.60 ± 6.00
- Mean vascular wall thickness ([1]; pulmonary arterioles inner diameter >100 um, 4 mg/kg): 10.67 ± 5.01
- LF/HF ratio (TAC rats [2]): reversed to normal
- QT dispersion and QTc dispersion increase induced by TAC (TAC-exposed rats): reversed such effects
- QRS duration and R amplitude (TAC-exposed rats): trended normal
- cardiac and myocyte hypertrophy (TAC rats [3]): ameliorated
- increment of cardiomyocyte cross-sectional area (TAC rats [3]; 1 mg/kg): 15.1%
- increment of cardiomyocyte cross-sectional area (TAC rats [3]; 2 mg/kg): 4.1%
- increase of cardiomyocyte cross-sectional area comparing to Sham rats (TAC rats [3]; 3 weeks TAC rats, dose not stated (TAC alone 76%)): 10%
- HW (TAC rats [3]; [4]): 0.72 ± 0.03 g
- HW/BW (TAC rats [3]; [4]): 2.862 ± 0.099 mg/g
